Test results taken from patent publication US8632914B2, “Triazolium and imidazolium salts and uses thereof” (University Health Network, priority 2008, dated 2014).

Experiments:
P. falciparum = test: Anti-Plasmodium activity: viability of P. falciparum cultures (pLDH enzyme assay); type: cell-based; conditions: strain line ItG, 72 hr incubation, pLDH assay, mean of four determinations ± standard error, read-out: IC50 (μM) P. falciparum
Protocol: P. falciparum cultures were grown in O+ blood obtained by venipuncture of volunteers. Cultures of the laboratory line ItG were maintained by the method of Trager and Jensen (Trager, W.; Jensen, J. Science 1976, 193, 673) using RPM, 1640 supplemented with 10% human serum (a kind gift obtained under ethical consent from the Chemo Day Care department of the Princess Margaret Hospital, Toronto, Canada) and 50 μM hypoxanthine (RPMI-A). The effects of the test compounds on the viability of P. falciparum cultures were determined using a Lactate Dehydrogenase (LDH) enzyme assay specific to the enzyme found in Plasmodium falciparum (pLDH) (Prudhomme, J. G.; Sherman, I. W. J Immunol Methods 1999, 229(1-2), 169; Makler, M. T.; Ries, J. M.; Williams, J. A.; Bancroft, J. E.; Piper, R. C.; Gibbins, B. L.; Hinrichs, D. J. Am J Trop Med Hyg 1993, 48(6), 739). Briefly, compounds to be tested were dissolved in DMSO afford a solution having a concentration of 10 mg/mL. Two-fold serial dilutions were then produced in 50 μL of RPMI-A in a 96 well plate and then 50 μL of parasite culture (2% hematocrit, 2% parasitemia) were added to each well and the plates were then incubated at 37° C. in 95% N2, 3% CO2, and 2% O2 for 72 hr. The contents of the wells were then re-suspended using a multi-channel pipettor and a 15 μL sample was removed from each well and was added to 100 μL of pLDH enzyme assay mixture (Prudhomme, J. G.; Sherman, I. W. J Immunol Methods 1999, 229(1-2), 169). After 1 hr the absorbance of the wells at 650 nm was determined using a ThermoMax microplate reader (Molecular Devices, Sunnyvale, Calif.). The IC50 values of individual compounds were determined using a non-linear regression analysis of the data^19 using the computer program SigmaPlot (Jandel Scientific) and are reported in Table 1. The IC50 values represent the mean±standard error calculated from four independent determinations. To verify if the poor viability of the cultures was related to inhibited merozoite invasion, samples were taken from treated wells and the presence of extracellular merozoites was confirmed by microscopy.

CHO cells = test: Viability of CHO cells (MTT); type: cell-based; conditions: Cricetulus griseus; CHO cells; 48 hrs; MTT; mean of four determinations ± standard error; read-out: IC50 (μM) CHO cells
Protocol: CHO cells (ATCC, Manassas, Va.) were grown in RPMI-1640 supplemented with 10% fetal calf serum (Sigma, St. Louis, Mo.), 25 mM HEPES and gentimicin (RPMI-10). Cells were seeded in 96 well plates and grown to 50% confluency in 100 μL of RPMI-10 per well prior to the addition of either DMSO alone, or a 10 mg/mL solution of a test compound of the disclosure in DMSO. Compound gradients were prepared by adding 90 μL of RPMI-10 mixed with 10 μL of compound solution to the first well in the series, mixing, transferring 100 μL to the next well, and repeating until the next-to-last well was reached. After 48 hrs, the viability of the cells was determined by discarding the media in the wells and adding 100 μL of 10 mg/mL of 3-[4,5-dimethylthiazol-2-yl]-2,5-diphenyltetrazolium bromide (MTT, Sigma, St. Louis, Mo.) in RPMI-10, incubating the plates for a further hour, and then removing the media and adding 100 μL of DMSO and reading the absorbance at 650 nm (Campling, B. G.; Pym, J.; Galbraith, P. R.; Cole, S. P. Leuk Res 1988, 12(10), 823). The IC50 values of individual compounds were determined using a non-linear regression analysis of the dose-response curve using the computer program SigmaPlot (Jandel Scientific) and are reported in Table 1.

[1] = set-up: species or system mice; conditions: mouse, in vivo
Protocol: (§1) Groups of 5 female Balb/C mice were infected with 10^6 P. berghei parasites i.p. and the parasitemia was estimated daily by examining a Giemsa-stained blood film. Once parasites were observed mice were infused once daily with saline alone (control groups) or with 18 ug/day of QT72, 18 ug/day of QT69, 0.24 ug/day of QT98, 60 ug/day of QT109, 9 ug/day of QT119, 7.5 ug/day of QT124 or 450 ug/day of chloroquine (CQ) for three days, as indicated by the arrows in FIG. 1. Average parasitemias are shown in FIG. 1 with standard error of the mean for each experimental group indicated by bars. The separate graphs in FIG. 1 indicate the results of two separate experiments.

P. berghei parasites = test: In vivo evaluation: parasitemia in mice infected with P. berghei; set-up: species or system P. berghei in female Balb/C mice
Protocol: as §1

[2] = test system: P. falciparum ItG cultures; test: Effect on synchronized ItG P. falciparum cultures (Giemsa stained blood films); type: cell-based; conditions: 20 uM; cultures synchronized at mature stage; 24 hrs incubation
Protocol: The culture was allowed to incubate for 24 hrs before samples were withdrawn and used to produce Giemsa stained blood films.

SMILES | IC50 (P. falciparum) | IC50 (CHO cells) | adverse effects on the health of the mice [1] | parasitemia vs saline control (P. berghei parasites; 9 ug/day infused once daily for three days, second experiment, day 14 (P<0.10), day 15 (P<0.03)) | parasitemia vs saline control (P. berghei parasites; 18 ug/day infused once daily for three days, day 6 (P<0.10), day 7 (P<0.01), day 8 (P<0.01)) | parasite forms in Giemsa stained blood films [2] | parasitemia vs saline control (P. berghei parasites; 450 ug/day infused once daily for three days, second experiment, all days following day 6 (P<0.02)) | parasitemia vs saline control (P. berghei parasites; 0.24 ug/day infused once daily for three days, day 7 (P<0.05))
C[n+]1ccn(CCCCCCCCCCCCCn2cc[n+](C)c2)c1 [QT109, 1,13-Bis-(3-methylimidazolium-1-yl)tridecane diiodide] | 0.007 ± 0.003 µM | 51 ± 11 µM | no adverse effects on the health of the mice were observed | – | – | – | – | –
C[n+]1cnn(CCCCCCCCCCCCn2c[n+](C)cn2)c1 [QT124, 1,12-Bis(4-methyl-1H-1,2,4-triazolium-1-yl)dodecane diiodide] | 0.00016 ± 5e-05 µM | 52 ± 9 µM | no adverse effects on the health of the mice were observed | – | – | – | – | –
CCC[n+]1ccn(CCCCCCCCCCCCn2cc[n+](CCC)c2)c1 [QT119, 1,12-Bis(3-propylimidazolium-1-yl)dodecane diiodide] | 0.0008 ± 0.0001 µM | 78 ± 14 µM | no adverse effects on the health of the mice were observed | significantly lower | – | – | – | –
c1ccc(Cn2cc[n+](Cc3ccc4ccccc4c3)c2)cc1 [QT69, 1-Benzyl-3-(naphthalen-2-yl-methyl)imidazolium bromide] | 0.9 ± 0.2 µM | 108 ± 6 µM | – | – | significantly lower | parasite forms were seen associated with the outside of the red cells | – | –
CCN(CC)CCCC(C)Nc1ccnc2cc(Cl)ccc12 (stereo not drawn) [chloroquine, reference compound] | – | – | – | – | – | – | significantly lower | –
C[n+]1ccn(-c2ccc(-c3ccc(-n4cc[n+](C)c4)cc3)cc2)c1 [QT98, 4,4′-Bis-(3-methyl-1H-imidazolium-1-yl)biphenyl diiodide] | 0.009 ± 0.001 µM | 9 ± 2 µM | – | – | – | – | – | significantly lower
